Assay results reported in patent publication US20130095122A1, “Peptides or Antibodies Which Bind to Melanoma Inhibitory Activity (MIA) Protein” (priority 2010, published 2013).

Assays:
[1] = molecular target: T1, MIA-MIA interaction (MIA-Ru(bpy)3 / immobilized MIA-biotin) (Homo sapiens, UniProt Q16674); assay: heterogeneous transition-metal based fluorescence polarization (HTFP) assay of MIA-MIA interaction; assay type: binding; details: MIA-Ru(bpy)3 55 fM in wells coated with MIA-biotin
T1 sequence (Q16674 25-131): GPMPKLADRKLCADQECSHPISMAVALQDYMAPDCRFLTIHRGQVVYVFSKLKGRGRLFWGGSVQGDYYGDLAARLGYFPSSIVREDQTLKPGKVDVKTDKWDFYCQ
Procedure: This becomes particularly evident in a heterogeneous transition metal-based fluorescence polarization assay (HTFP assay), wherein the ratio P/P0 is measured. P is the fluorescence polarization signal of a MIA protein labeled with a transition metal complex in the presence of substrate bound MIA-protein and of the peptide or antibody to be tested. P0 is the fluorescence polarization signal of free MIA-protein labeled with said luminescent transition metal complex in the absence of substrate bound MIA-protein and in the absence of said peptide or antibody. In the absence of the peptide or antibody, usually, the labeled MIA-protein would interact with the substrate bound MIA-protein, which, in turn, would contribute to a reduction in rotational mobility of the labeled MIA-protein, and therefore, the fluorescence polarization signal would increase upon such interaction. If, additionally, a peptide or antibody is present that interferes with such interaction, no or little dimerization/aggregation occurs and no or little increase in fluorescence polarization signal would be detected. […]
All measurements were performed at RT on a Polarstar Optima microplate reader (BMG Labtech, Offenburg, Germany). […]

MIA protein dimer = molecular target: T2, MIA protein dimer (Homo sapiens, UniProt Q16674); assay: Western blot analysis of MIA dimer bands; assay type: biochemical; details: MIA preincubated with 1 μM peptide (FIG. 2B)
T2 construct: made in house; host or cells: cell-free Rapid Translation System RTS 500 E. coli HY Disulfite Kit (Roche)
T2 sequence (Q16674 25-131): T1 sequence (Q16674 25-131)
Procedure: Protein samples were denaturated at 70° C. for 10 min after addition of reducing and denaturing Roti-Load buffer (Roth, Karlsruhe, Germany) and subsequently separated on sodium dodecyl sulfate 12.75% polyacrylamid gels (SDS-PAGE) (Invitrogen, Groningen, The Netherlands). In the multimerization studies, MIA protein (1 μg) was incubated with AR71 (2.5 μg) overnight at RT before being treated as described above. After transferring the proteins onto a polyvinylidene fluoride (PVDF) membrane (BioRad, Richmond, Va., USA), the membrane was blocked using 3% BSA/PBS for 1 h at RT and incubated with a 1:150 dilution of primary polyclonal rabbit anti MIA antibody (Biogenes, Berlin, Germany) in 3% BSA/PBS overnight at 4° C. After washing in PBS the membrane was incubated with a 1:2000 dilution of an […] coupled secondary antibody (Chemikon, Hofheim, Germany) for 2 h at RT. Finally, after washing steps, immunoreactions were visualized by nitro blue tetrazolium/5-bromo-4-chloro-3-indolyl phosphate (NBT/BCIP) (Invitrogen, Karlsruhe, Germany) staining.

[2] = system: murine B16 melanoma cells; assay: In vivo metastasis assay, Sig-AR71-HisTag expressing B16 clone injected into spleen; details: mice injected with Sig-AR71-HisTag expressing clone
Procedure: To determine the effect of peptide AR71 on the metastatic potential of murine B16 melanoma cells in vivo, a previously developed mouse metastases model was used.^19 1×10^5 cells of the AR71-HisTag expressing B16 cell clone AR71-His K4 as well as the corresponding mock control cells were injected into the spleen of mice (n=8 for mock control cells as well as for AR71-HisTag K4 cells, respectively). After nine days, mice were sacrificed, the livers were resected and the number and size of visible black tumor nodules on the surface of the livers was noticed. Tissues were fixed in formalin and afterwards paraffin embedded sections were hematoxylin and eosin stained for histological analysis.
Nine days after injection of the cells into the spleen, the mice were sacrificed, the livers were resected and tissue sections were prepared. Here, the inventors used the stably transfected murine B16 melanoma cells with a Sig-AR71-HisTag containing construct. […] The interference of AR71-HisTag with MIA-MIA interaction was also confirmed in the HTFP assay using wells coated with MIA-biotin (data not shown). Subsequently, a Sig-AR71-HisTag clone as well as a corresponding mock control was injected into the spleen of C57B16 mice, respectively. […]

## Ac-FHWRYPLPLPGQ-NH2 [AR71, FHWRYPLPLPGQ]
[1]
  interference with MIA-MIA interaction (decrease in fluorescence polarization signal, P/P0): particularly potent in dissociating MIA dimers
MIA protein dimer
  reduction of MIA dimer bands: strong reduction of the dimer bands
[2]
  adverse effects on other organs and tissues: No adverse effects
